# Test: Water solubility test
compound,measurement,value
CC1(C)C(/C=C/C2=C(Oc3ccccc3)C(=C/C=C3/N(CCCCS(=O)(=O)O)c4ccccc4C3(C)C)/CCC2)=[N+](CCCNC(=S)NCCC[N+](C)(C)CCCCCCN=C=NCCC[N+]2(C)CCOCC2)c2ccc3ccccc3c21.I [Compound (2)],Solubility in water,55 mg/mL

# From patent US7135293B2, “Method of detecting a nucleic acid using a fluorescent group-containing carbodiimide as a label” (Nisshinbo Industries, Inc., priority 1999, dated 2006)
